Where a SMILES comes first, the peptide text is derived from it.
How the values were obtained:
[1] = Initial pH screening of the composition; format: physicochemical; conditions: for I pH (initial pH), 0.10%: nitrogen compound 0.10 wt/vol % with 1.0 wt/vol % α methyl-D glucoside in medium; for I pH (initial pH), 0.50%: nitrogen compound 0.50 wt/vol % with 1.0 wt/vol % α methyl-D glucoside in medium; for I pH (initial pH), 1.00%: nitrogen compound 1.00 wt/vol % with 1.0 wt/vol % α methyl-D glucoside in medium
Summary of the method: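 Compounds were added to LAPT-g medium (pH adjusted to 6.5) at a final 0.1-1.0%. Solubility was judged visually by precipitate or turbidity, and insoluble compositions got no pH measurement. Initial pH was scored Low (<5.5), High (>6.5) or Pass (5.5-6.5), and only soluble Pass compositions went on to efficacy testing.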

[2] = system: L. crispatus and E. coli; assay: Therapeutic Effect Protocol: L. crispatus / E. coli co-culture, ratio after 36 hours; format: cell-based, Lactobacillus crispatus; E. coli; conditions: for Therapeutic Efficacy Results (Lactobacillus/E. coli) 0.10%: nitrogen compound 0.10 wt/vol % with 1.0 wt/vol % α methyl-D glucoside (10:1); for Therapeutic Efficacy Results (Lactobacillus/E. coli) 0.10% / Therapeutic Efficacy Results (Lactobacillus/E. coli) 0.50% / Therapeutic Efficacy Results (Lactobacillus/E. coli) 1.00%: 36 hours anaerobic co-culture, 37° C.; for Therapeutic Efficacy Results (Lactobacillus/E. coli) 0.50%: nitrogen compound 0.50 wt/vol % with 1.0 wt/vol % α methyl-D glucoside (2:1); for Therapeutic Efficacy Results (Lactobacillus/E. coli) 1.00%: nitrogen compound 1.00 wt/vol % with 1.0 wt/vol % α methyl-D glucoside (1:1); for Therapeutic effect (ratio of Lactobacillus to E. coli greater than 2) at each concentration tested / Therapeutic effect when ratio α methyl-D glucoside : nitrogen compound is less than 2:1 (1:1) / Therapeutic effect when ratio α methyl-D glucoside : nitrogen compound is at least about 2:1, but not at 1:1 / Therapeutic effect at ratio 2:1 and 10:1, but not at 1:1: with α methyl-D glucoside; for Therapeutic effect (ratio of Lactobacillus to E. coli greater than 2) at each concentration tested: nitrogen compound 1 wt/vol %, 0.5 wt/vol % and 0.1 wt/vol %; for Therapeutic effect when ratio α methyl-D glucoside : nitrogen compound is less than 2:1 (1:1): ratio 1:1; for Therapeutic effect when ratio α methyl-D glucoside : nitrogen compound is at least about 2:1, but not at 1:1: ratio at least about 2:1, not 1:1; for Therapeutic effect at ratio 2:1 and 10:1, but not at 1:1: ratios 2:1 and 10:1, not 1:1
Summary of the method: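 L. crispatus and E. coli were mixed 1,000:1 (10^5-10^6 and 100-1,000 CFU per 5 mL tube) in LAPT-g medium at pH 6.5, containing 1% α-methyl-D-glucoside plus nitrogen compound at 0.1-1% w/v, in duplicate. After 36 h anaerobic incubation at 37 °C, each species was counted by selective plating (MRS anaerobic, TSA aerobic), and the L. crispatus:E. coli ratio and final pH were recorded.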

Row | SMILES | I pH (initial pH), 0.10% [1] | I pH (initial pH), 0.50% [1] | I pH (initial pH), 1.00% [1] | Therapeutic Efficacy Results (Lactobacillus/E. coli) 0.10% [2] | Therapeutic Efficacy Results (Lactobacillus/E. coli) 0.50% [2] | Therapeutic Efficacy Results (Lactobacillus/E. coli) 1.00% [2] | Therapeutic effect (ratio of Lactobacillus to E. coli greater than 2) at each concentration tested [2] | Therapeutic effect when ratio α methyl-D glucoside : nitrogen compound is less than 2:1 (1:1) [2] | Therapeutic effect when ratio α methyl-D glucoside : nitrogen compound is at least about 2:1, but not at 1:1 [2] | Therapeutic effect at ratio 2:1 and 10:1, but not at 1:1 [2]
1 | N[C@@H](CS)C(=O)O [L-Cysteine] | P (a Pass initial pH corresponds to the pH being at or between 5.5-6.5) | P (a Pass initial pH corresponds to the pH being at or between 5.5-6.5) | P (a Pass initial pH corresponds to the pH being at or between 5.5-6.5) | >299 | 28.38 | 10.44 | provided a therapeutic effect | provided a therapeutic effect | – | –
2 | NC(=O)CC[C@H](N)C(=O)O [L-Glutamine] | P (a Pass initial pH corresponds to the pH being at or between 5.5-6.5) | P (a Pass initial pH corresponds to the pH being at or between 5.5-6.5) | P (a Pass initial pH corresponds to the pH being at or between 5.5-6.5) | >161 | 1.28 | 0.53 | – | – | provided a therapeutic effect | –
3 | N[C@@H](CCO)C(=O)O [L-Homoserine] | P (a Pass initial pH corresponds to the pH being at or between 5.5-6.5) | P (a Pass initial pH corresponds to the pH being at or between 5.5-6.5) | P (a Pass initial pH corresponds to the pH being at or between 5.5-6.5) | >750 | 0.66 | 0.33 | – | – | provided a therapeutic effect | –
4 | NCCCC[C@H](N)C(=O)O [L-Lysine] | P (a Pass initial pH corresponds to the pH being at or between 5.5-6.5) | P (a Pass initial pH corresponds to the pH being at or between 5.5-6.5) | P (a Pass initial pH corresponds to the pH being at or between 5.5-6.5) | >141 | 1.93 | 0.42 | – | – | provided a therapeutic effect | –
5 | CSCC[C@H](N)C(=O)O [L-Methionine] | P (a Pass initial pH corresponds to the pH being at or between 5.5-6.5) | P (a Pass initial pH corresponds to the pH being at or between 5.5-6.5) | P (a Pass initial pH corresponds to the pH being at or between 5.5-6.5) | >1.71E+05 | 0.78 | 0.75 | – | – | provided a therapeutic effect | –
6 | Cl.NCCC[C@H](N)C(=O)O [L-Ornthine] | P (a Pass initial pH corresponds to the pH being at or between 5.5-6.5) | P (a Pass initial pH corresponds to the pH being at or between 5.5-6.5) | P (a Pass initial pH corresponds to the pH being at or between 5.5-6.5) | 1.31 | 1.24 | 3.97 | – | provided a therapeutic effect | – | –
7 | N[C@@H](CO)C(=O)O [L-Serine] | P (a Pass initial pH corresponds to the pH being at or between 5.5-6.5) | P (a Pass initial pH corresponds to the pH being at or between 5.5-6.5) | P (a Pass initial pH corresponds to the pH being at or between 5.5-6.5) | 393 | >299 | 0.45 | – | – | provided a therapeutic effect | provided a therapeutic effect
8 | C[C@@H](O)[C@H](N)C(=O)O [L-Threonine] | P (a Pass initial pH corresponds to the pH being at or between 5.5-6.5) | P (a Pass initial pH corresponds to the pH being at or between 5.5-6.5) | P (a Pass initial pH corresponds to the pH being at or between 5.5-6.5) | 0.74 | 1.13 | 0.36 | – | – | – | –
9 | N[C@@H](Cc1ccc(O)cc1)C(=O)O [L-Tyrosine] | P (a Pass initial pH corresponds to the pH being at or between 5.5-6.5) | – | – | 2.72 | – | – | – | – | – | –
10 | CC(C)[C@H](N)C(=O)O [L-Valine] | P (a Pass initial pH corresponds to the pH being at or between 5.5-6.5) | P (a Pass initial pH corresponds to the pH being at or between 5.5-6.5) | P (a Pass initial pH corresponds to the pH being at or between 5.5-6.5) | 1.34 | 0.38 | 1.01 | – | – | – | –
11 | CSCC[C@H](N)C(=O)N[C@@H](C)C(=O)O [Met-Ala] (H-Met-Ala-OH) | P (a Pass initial pH corresponds to the pH being at or between 5.5-6.5) | L (A Low initial pH corresponds to an initial pH being less than 5.5) | L (A Low initial pH corresponds to an initial pH being less than 5.5) | 7.33 | – | – | – | – | provided a therapeutic effect | –
12 | CNCCc1ccccc1.Cl [Methyl(2-phenylethyl)amine Hydrochloride] | P (a Pass initial pH corresponds to the pH being at or between 5.5-6.5) | P (a Pass initial pH corresponds to the pH being at or between 5.5-6.5) | P (a Pass initial pH corresponds to the pH being at or between 5.5-6.5) | 10 | <1.00 | 3 | – | provided a therapeutic effect | provided a therapeutic effect | –
13 | CC(=O)N[C@H]1C(O)O[C@H](CO)[C@H](O)[C@@H]1O (stereo partly drawn) [N-Acetyl-D-Galactosamine] | P (a Pass initial pH corresponds to the pH being at or between 5.5-6.5) | P (a Pass initial pH corresponds to the pH being at or between 5.5-6.5) | P (a Pass initial pH corresponds to the pH being at or between 5.5-6.5) | 130 | >100 | 0.65 | – | – | provided a therapeutic effect | provided a therapeutic effect
14 | CC(=O)N[C@H]1C(O)O[C@H](CO)[C@@H](O)[C@@H]1O (stereo partly drawn) [N-Acetyl-D-Glucosamine] | P (a Pass initial pH corresponds to the pH being at or between 5.5-6.5) | P (a Pass initial pH corresponds to the pH being at or between 5.5-6.5) | P (a Pass initial pH corresponds to the pH being at or between 5.5-6.5) | 8.33 | 211 | 7.00E+06 | provided a therapeutic effect | provided a therapeutic effect | – | –

Reference: US12029748B2, “Synergistic composition for maintenance of healthy balance of microflora” (KIMBERLY-CLARK WORLDWIDE, INC., priority 2017, dated 2024)
